According to patent EP2487171A1, “Dihydrobenzopyran, thiochroman, tetrahydroquinoleine and tetrahydronaphthalene derivatives and their use in anti-cancer therapy” (Université de Liège, priority 2011, dated 2012):

Key:
[1] = test system: human U373 glioma cell line; test: Quantitative videomicroscopy (computer-assisted phase-contrast microscopy); assay type: cell-based; conditions: U373 cells treated at the IC50 concentration from MTT, filmed for 72h; cytostatic versus cytotoxic effects
Excerpt: In addition, the inventors could establish that the compounds of the invention act through a non-apoptosis-related mechanism thanks to a unique experimental approach used by the inventors, i.e. computer-assisted phase-contrast microscopy (quantitative videomicroscopy), making them good candidates as anti-cancer drugs for treating apoptosis-resistant tumor or cancer cells and for overcoming problems linked to the known anti-cancer drugs.
As the MTT test is based on the mitochondria functions, we also investigated the effects of the compounds according to the invention on cell proliferation, migration and morphology by means of a cellular imaging approach (Debeir et al., Cytometry 60:29-40, 2004; Debeir et al., IEEE Trans Med Imaging 24:697-711, 2005) in the human U373 glioma cell line, which is apoptosis-resistant but autophagy-sensitive (Lefranc F et al., Neurosurgery 2008).
Cellular imaging relied on the use of computer-assisted phase-contrast microscopy making possible to film the behaviour of living cells in culture dishes for several days.
Cells were seeded in a 25-cm^2 flask at a low density, treated or not with the compounds of the invention (at their IC50 concentration determined previously by MTT tests) and filmed thereafter for a period of 72h. The experiment was conducted in triplicate.
The behaviour of the cells, in terms of morphology, growth and death were thus investigated. The effect on the overall growth was measured by counting the number of cells on the first (0h) and the last image (72h) of each film. The global growth ratio (GGR) was then deduced by dividing the number of cells on the last image by the number of cells on the first image. The ratio GGRtreated cells / GGRcontrol cells, was further calculated thereby obtaining a value that describes the effect of compounds of the present invention on the overall cell growth.
The methodology is fully described and validated in Debeir et al., 2008, Exp Cell Res 314:2985-2998 and Mathieu et al., 2009, J Cell Mol Med, Feb 20, 2009.
Thanks to the quantitative videomicroscopy (QVM) approach, we classified the compounds into 4 distinctive classes on the basis of their cytostatic versus cytotoxic effects (Table 3). • Class I: actually cytostatic for 3 days (< 10 % of cell death at the 3rd day) • Class II: cytostatic but becomes cytotoxic with < 10% cell death on the 2nd day and > 20% of cell death on the 3rd day • Class III: cytostatic but rapidly becomes cytotoxic with < 10% cell death on the 1st day, > 20% of cell death on the 2nd day and > 50% of cell death on the 3rd day • Class IV: cytotoxic (> 50% of cell death on the first day)
In Fig. 1a, compounds of example 14 (5 µM), example 19 (20 µM) and example 23 (5 µM) belong to QVM Class I because they display cytostatic effects on human U373 GBM cells during the whole duration of the experiment. Cytostatic effects mean that < 10 % of cell death was recorded at the end of the experiment, i.e. at the end of the 3rd day. QVM analyses enable the global growth ratio (GGR) to be calculated in each experiment. The GGR index is obtained by dividing the number of cells in the last image by the number of cells in the first image of the experiment, knowing that 1080 images are taken during the 72 h-period of observation. The ratio GGR^treated cells / GGR^control cells was further calculated thereby obtaining a value that describes the effect of compounds on the overall cell growth. Thus, a GGR index of 0.2 means that they remain only 20% of treated cells compare to the control cells at the end of the experiment.

[2] = test system: Hs683; test: MTT colorimetric assay, overall cell growth; assay type: cell-based; conditions: Homo sapiens, Hs 683; Hs683 cells, 72 hours of incubation; read-out: IC50 (µM) In Vitro Growth Inhibitory Concentrations (MTT Colorimetric Assay) Hs683
Experimental: (§2) The compounds and particularly dihydrobenzopyran, thiochroman, tetrahydroquinoleine and tetrahydronaphthalene derivatives of the invention were evaluated for their anti-proliferative effect (by means of the colorimetric MTT assay), in the following human glioblastoma cell-lines U373, T98G and Hs683 and in the mouse glioma cell line GL261. Normal brain cells (primocultures from newborn mice) were also used in order to determine the bioselectivity (B^N/C) of the compounds of interest, i.e. the ratio between the concentrations that inhibits 50% of the growth of brain cancer (C) cells (glioma cells) and the concentration that inhibits 50% of the growth of normal (N) brain cells (primocultures of astrocytes). The ideal situation to be reached is a bioselectivity of B^N/C > 10.
(§3) MTT tests were performed in order to rapidly, i.e. within 5 days, measure the effect of compounds of this invention on the overall cell growth. The test measured the number of metabolically active living cells that were able to transform the yellow product 3-(4,5-dimethylthiazol-2-yl)-2,5-diphenyl tetrazolium bromide (herein referred as MTT) into the blue product formazan dye by mitochondrial reduction. The amount of formazan obtained at the end of the experiment, measured by means of a spectrophotometer, is directly proportional to the number of living cells. Optical density determination thus enabled a quantitative measurement of the effect of the investigated compounds as compared to the control condition (untreated cells) and/or to other reference compounds.
(§4) Three human cancer cell lines were used in the following MTT tests.
(§5) To perform the assay, cells were allowed to grow in 96-well micro-wells with a flat bottom with an amount of 100 µl of cell suspension per well with 1,000 to 8,000 cells/well depending on the cell type used. Each cell line was seeded in its appropriate culture medium.
(§6) The detailed experimental procedure was the following: after a 24-hour period of incubation at 37°C, the culture medium was replaced by 100 µl of fresh medium in which the tested compound was previously dissolved, at the following molar concentrations: 10^-8 M, 5.10^-8 M, 10^-7 M, 5.10^-7 M, 10^-6 M, 5.10^-6 M, 10^-5 M, 5.10^-5 M and 10^-4 M. Each experiment was performed in sextuplicate (6 times).
(§7) After 72 hours of incubation at 37°C with (experimental conditions) or without (control condition) the compound to be tested, the medium was replaced by 100 µl MTT dissolved in RPMI (1640 without phenol red) at a concentration of 0.5 mg/ml. The micro-wells were subsequently incubated during 3 hours and a half at 37°C and centrifuged at 1300 rpm during 10 minutes. MTT was removed and formazan crystals formed were dissolved in 100 µl DMSO. The micro-wells were shaken for 5 minutes and read on a spectrophotometer at wavelengths of 570 nm (maximal formazan absorbance).
(§8) For each experimental condition, the mean optical density was calculated, allowing the determination of the percentage of remaining living cells in comparison to the control.

[3] = test system: Astrocytes - Mouse normal brain cells; test: MTT colorimetric assay on normal astrocytes (bioselectivity); assay type: cell-based; conditions: Astrocyte, primocultures of astrocytes from newborn mice, 72h, read-out: Mean IC50 MTT values ± SEM (µM) Astrocytes - Mouse normal brain cells (II - 72h)
[4] = test system: T98G; test: MTT colorimetric assay, overall cell growth; conditions: Homo sapiens, 72 h, read-out: IC50 (µM) In Vitro Growth Inhibitory Concentrations (MTT Colorimetric Assay) T98G;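 note: growth inhibition of the human glioblastoma line measured by MTT reduction to formazan, optical density read on a spectrophotometer at 570 nm, untreated cells as control, nine concentrations from 10 nM to 100 µM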
Experimental: The compounds and particularly dihydrobenzopyran, thiochroman, tetrahydroquinoleine and tetrahydronaphthalene derivatives of the invention were evaluated for their anti-proliferative effect (by means of the colorimetric MTT assay), in the following human glioblastoma cell-lines U373, T98G and Hs683 and in the mouse glioma cell line GL261. Normal brain cells (primocultures from newborn mice) were also used in order to determine the bioselectivity (B^N/C) of the compounds of interest, i.e. the ratio between the concentrations that inhibits 50% of the growth of brain cancer (C) cells (glioma cells) and the concentration that inhibits 50% of the growth of normal (N) brain cells (primocultures of astrocytes).
as §3, §4, §5, §6
The micro-wells were subsequently incubated during 3 hours and a half at 37°C and centrifuged at 1300 rpm during 10 minutes. MTT was removed and formazan crystals formed were dissolved in 100 µl DMSO. The micro-wells were shaken for 5 minutes and read on a spectrophotometer at wavelengths of 570 nm (maximal formazan absorbance).
as §8

[5] = test system: Astrocytes - Mouse normal brain cells; test: MTT colorimetric assay on normal astrocytes (bioselectivity); assay type: cell-based
Experimental: (§1) Table 2: Bioselectivity determined by dividing the IC50 obtained with glioma cell lines by the IC50 obtained with normal astrocytes. Bioselectivity was determined only for those compounds whose mean + SEM values on the three human glioma cell lines were ≤ 20 µM.

[6] = test system: U373; test: MTT colorimetric assay, overall cell growth; assay type: cell-based; conditions: Homo sapiens, U373 MG; U373 cells, 72 hours of incubation; read-out: IC50 (µM) In Vitro Growth Inhibitory Concentrations (MTT Colorimetric Assay) U373
Experimental: as §2, §3, §4, §5, §6, §7, §8

[7] = test system: three Human Glioma Cell Lines; test: MTT colorimetric assay, mean over the three glioma cell lines; assay type: cell-based; conditions: mean of the three human glioma cell lines, 72h (Table 2); read-out: Mean IC50 MTT values ± SEM (µM) Glioma - Human Brain cancer cells (I - 72h)
Experimental: as §1

CC(C)(C)OC(=O)Nc1ccc2c(c1)C(NC(=O)Nc1cccc(C#N)c1)CC(C)(C)O2 (racemic) [Example 14, R/S-N-3-cyanophenyl-N'-(6-tert-butoxycarbonylamino-3,4-dihydro-2,2-dimethyl-2H-1-benzopyran-4-yl)urea]
QVM Class [1]: I (Class I: actually cytostatic for 3 days (< 10 % of cell death at the 3rd day)) | IC50 [2]: 2 µM | IC50 [3]: > 20 µM | IC50 [4]: 3 µM | Bioselectivity (I / II) [5]: > 10 | IC50 [6]: 2 µM | IC50 [7]: 2 ± 1 µM

CC(C)(C)OC(=O)Nc1ccc2c(c1)C(NC(=O)Nc1cccc(Cl)c1)CC(C)(C)O2 (racemic) [Example 16, R/S-N-3-chlorophenyl-N'-(6-tert-butoxycarbonylamino-3,4-dihydro-2,2-dimethyl-2H-1-benzopyran-4-yl)urea]
QVM Class [1]: III (Class III: cytostatic but rapidly becomes cytotoxic with < 10% cell death on the 1st day, > 20% of cell death on the 2nd day and > 50% of cell death on the 3rd day) | IC50 [2]: 12 µM | IC50 [3]: > 200 µM | IC50 [4]: 20 µM | Bioselectivity (I / II) [5]: >12 | IC50 [6]: 18 µM | IC50 [7]: 17 ± 3 µM

CC(C)(C)OC(=O)Nc1ccc2c(c1)C(NC(=O)Nc1cccc(C(F)(F)F)c1)CC(C)(C)O2 (racemic) [Example 25, R/S-N-3-trifluoromethylphenyl-N'-(6-tert-butoxycarbonylamino-3,4-dihydro-2,2-dimethyl-2H-1-benzopyran-4-yl)urea]
QVM Class [1]: II (Class II: cytostatic but becomes cytotoxic with < 10% cell death on the 2nd day and > 20% of cell death on the 3rd day) | IC50 [2]: 8 µM | IC50 [3]: ~20 µM | IC50 [4]: 21 µM | Bioselectivity (I / II) [5]: < 2 | IC50 [6]: 9 µM | IC50 [7]: 13 ± 4 µM

CC(C)(C)OC(=O)Nc1ccc2c(c1)C(NC(=O)Nc1cc(F)cc(F)c1)CC(C)(C)O2 (racemic) [Example 21, R/S-N-3,5-difluorophenyl-N'-(6-tert-butoxycarbonylamino-3,4-dihydro-2,2-dimethyl-2H-1-benzopyran-4-yl)urea]
QVM Class [1]: I (Class I: actually cytostatic for 3 days (< 10 % of cell death at the 3rd day)) | IC50 [2]: 7 µM | IC50 [3]: ~45 µM | IC50 [4]: 14 µM | Bioselectivity (I / II) [5]: ∼ 5 | IC50 [6]: 6 µM | IC50 [7]: 9 ± 3 µM

CC(C)(C)OC(=O)Nc1ccc2c(c1)C(NC(=O)Nc1ccc(C#N)cc1)CC(C)(C)O2 (racemic) [Example 15, R/S-N-4-cyanophenyl-N'-(6-tert-butoxycarbonylamino-3,4-dihydro-2,2-dimethyl-2H-1-benzopyran-4-yl)urea]
QVM Class [1]: I (Class I: actually cytostatic for 3 days (< 10 % of cell death at the 3rd day)) | IC50 [2]: 18 µM | IC50 [3]: > 200 µM | IC50 [4]: 26 µM | Bioselectivity (I / II) [5]: >10 | IC50 [6]: 10 µM | IC50 [7]: 18 ± 5 µM

CC(C)(C)OC(=O)Nc1ccc2c(c1)C(NC(=O)Nc1cc(Cl)cc(Cl)c1)CC(C)(C)O2 (racemic) [Example 26, R/S-N-3,5-dichlorophenyl-N'-(6-tert-butoxycarbonylamino-3,4-dihydro-2,2-dimethyl-2H-1-benzopyran-4-yl)urea]
QVM Class [1]: II (Class II: cytostatic but becomes cytotoxic with < 10% cell death on the 2nd day and > 20% of cell death on the 3rd day) | IC50 [2]: 9 µM | IC50 [3]: ~40 µM | IC50 [4]: 12 µM | Bioselectivity (I / II) [5]: < 5 | IC50 [6]: 6 µM | IC50 [7]: 9 ± 2 µM

CC(C)(C)OC(=O)Nc1ccc2c(c1)C(NC(=O)Nc1cccc([N+](=O)[O-])c1)CC(C)(C)O2 (racemic) [Example 23, R/S-N-3-nitrophenyl-N'-(6-tert-butoxycarbonylamino-3,4-dihydro-2,2-dimethyl-2H-1-benzopyran-4-yl)urea]
QVM Class [1]: I (Class I: actually cytostatic for 3 days (< 10 % of cell death at the 3rd day)) | IC50 [2]: 16 µM | IC50 [3]: < 40 µM | IC50 [4]: 7 µM | Bioselectivity (I / II) [5]: < 5 | IC50 [6]: 1 µM | IC50 [7]: 8 ± 4 µM

CC(C)(C)OC(=O)Nc1ccc2c(c1)C(NC(=O)Nc1ccccc1[N+](=O)[O-])CC(C)(C)O2 (racemic) [Example 27, R/S-N-2-nitrophenyl-N'-(6-tert-butoxycarbonylamino-3,4-dihydro-2,2-dimethyl-2H-1-benzopyran-4-yl)urea]
QVM Class [1]: I (Class I: actually cytostatic for 3 days (< 10 % of cell death at the 3rd day)) | IC50 [2]: 13 µM | IC50 [4]: 22 µM | IC50 [6]: 12 µM

CC(C)(C)OC(=O)Nc1ccc2c(c1)C(NC(=O)Nc1cc(C(F)(F)F)cc(C(F)(F)F)c1)CC(C)(C)O2 (racemic) [Example 29, R/S-N-3,5-di(trifluoromethyl)phenyl-N'-(6-tert-butoxycarbonylamino-3,4-dihydro-2,2-dimethyl-2H-1-benzopyran-4-yl)urea]
QVM Class [1]: I (Class I: actually cytostatic for 3 days (< 10 % of cell death at the 3rd day)) | IC50 [2]: 3 µM | IC50 [3]: ~20 µM | IC50 [4]: 5 µM | Bioselectivity (I / II) [5]: ∼ 5 | IC50 [6]: 4 µM | IC50 [7]: 4 ± 1 µM

CC(C)(C)OC(=O)Nc1ccc2c(c1)C(NC(=O)Nc1ccc(Br)cc1)CC(C)(C)O2 (racemic) [Example 34, R/S-N-4-bromophenyl-N'-(6-tert-butoxycarbonylamino-3,4-dihydro-2,2-dimethyl-2H-1-benzopyran-4-yl)urea]
QVM Class [1]: III (Class III: cytostatic but rapidly becomes cytotoxic with < 10% cell death on the 1st day, > 20% of cell death on the 2nd day and > 50% of cell death on the 3rd day) | IC50 [2]: 21 µM | IC50 [4]: 21 µM | IC50 [6]: 22 µM

CC(C)(C)OC(=O)Nc1ccc2c(c1)C(NC(=O)Nc1ccc(C(F)(F)F)cc1)CC(C)(C)O2 (racemic) [Example 24, R/S-N-4-trifluoromethylphenyl-N'-(6-tert-butoxycarbonylamino-3,4-dihydro-2,2-dimethyl-2H-1-benzopyran-4-yl)urea]
QVM Class [1]: I (Class I: actually cytostatic for 3 days (< 10 % of cell death at the 3rd day)) | IC50 [2]: 11 µM | IC50 [3]: > 120 µM | IC50 [4]: 15 µM | Bioselectivity (I / II) [5]: > 10 | IC50 [6]: 10 µM | IC50 [7]: 12 ± 1 µM

CC(C)(C)OC(=O)Nc1ccc2c(c1)C(NC(=O)Nc1ccc(C(F)(F)F)cc1Cl)CC(C)(C)O2 (racemic) [Example 30, R/S-N-2-chloro-4-trifluoromethylphenyl-N'-(6-tert-butoxycarbonylamino-3,4-dihydro-2,2-dimethyl-2H-1-benzopyran-4-yl)urea]
QVM Class [1]: II (Class II: cytostatic but becomes cytotoxic with < 10% cell death on the 2nd day and > 20% of cell death on the 3rd day) | IC50 [2]: 25 µM | IC50 [4]: 34 µM | IC50 [6]: 26 µM
